Assay [1] has as its target T1, VPS35 (Homo sapiens, UniProt Q96QK1).
T1 construct: expressed in transfected cells; host or cells: HECT293T cells
Description: Western blot of VPS35 protein levels in HECT293T cells after VPS35 plasmid transfection and/or R55. It counts as cell-based. Particulars: 5 μM of R55, Western blot 72 hours after transfection, lanes 7 and 8. The procedure:
Human HECT293 cells, considered a model for human neurons, were cultured. VPS35 was delivered via plasmid to HECT293T cells under control of the constitutive EF1a promoter. Pharmacological chaperone R55 was administered to the cells as an aqueous solution at concentrations of 5 uM and 50 uM at the time of transfection. Protein levels were assessed by Western blot 72 hours after transfection.
Lipofectamine transfection protocols were used with some modifications. Briefly lipofectamine LTX was used to co-transfect Vps35 and Vps26 (Vps26a or Vps26b) plasmids into the cells in a 6 well format. 100k cells were plated in each well already containing medium with DNA-lipofectamine complexes. Empty chassis and GFP as were used as control plasmids. Amount of DNA copies introduced per well was 2.81 E+11. Cells were harvested 48 hours after transfection using RIPA buffer as described previously (Qureshi et al. 2019).
Cells were lysed in RIPA and protein were isolated as described previously (Qureshi et al. 2019; Kirby et al. 2015). Lysates from the samples were run on NuPAGE® Bis-Tris 4-12% gels, transferred onto nitrocellulose membranes using iblot and were probed with antibodies.
A primary antibody targeting VPS35 was used (ab57632, Abcam, 1:1k). Western blots were scanned using the Odyssey imaging system as described previously (Eaton et al. 2013). […]
On the technique in general: In western blotting, separated proteins are transferred to a membrane and probed.

Assay [2] addresses purified, reconstituted heterotrimeric complex (Homo sapiens, UniProt Q96QK1+Q9UBQ0). Conditions: various concentrations; Mecozzi et al. 2014; cited from earlier work.
Assay [3] relates to VPS26. Particulars: cultured primary neurons; Mecozzi et al. 2014; cited from earlier work.
Assay [4] deals with T2, VPS35 (Mus musculus, UniProt Q9EQH3).
T2 construct: cultured primary neurons; endogenous in cells; host or cells: cultured primary neurons
Conditions: cultured primary neurons; Mecozzi et al. 2014; cited from earlier work.

SMILES strings stand for the structures.

Regarding `[H]/N=C(\N)SCc1ccc(CS/C(N)=N/[H])s1` [R55], in assay [1], the “increase on endogenous VPS35 protein levels” value is “about 50%”. Also, the “thermal stability (denaturation temperature of the complex)” value in assay [2] is “improved thermal stability significantly”. Moreover, the VPS26 protein levels result in assay [3] is listed as “increased”. Moreover, the VPS35 protein levels entry in assay [4] is given as “increased”.
